What was measured:
CXXC5-DVL interaction = molecular target: T1, CXXC5-DVL interaction (Homo sapiens, UniProt O14640); experiment: In vitro CXXC5-DVL binding assay (FITC-tagged PTD-DBMP on DVL PDZ domain); conditions: from dose-response curve, FIG. 4B
T1 construct: 5 mg/ml purified DVL PDZ domain was incubated in each well
T1 sequence (O14640 251-323 limits assumed): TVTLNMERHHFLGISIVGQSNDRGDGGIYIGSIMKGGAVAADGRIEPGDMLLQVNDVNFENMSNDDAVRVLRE

[1] = test system: TOPFlash Wnt reporter activity; experiment: TOPFlash Wnt reporter assay in HEK293-TOP cells; assay type: cell-based; conditions: 18 hours, FIG. 4D
Protocol: Reporter assay. HEK293-TOP cells were seeded into each well of a 24-well plate. The cells were treated with individual compounds at indicated concentration and cultured for 18 hours. The cells were then harvested and lysed in 60 μl of Reporter Lysis Buffer (Promega, Madison, Wis.) according to the manufacturer's instructions. After centrifugation, 20 μl of the supernatant was used to measure luciferase activity. Relative luciferase activities were normalized to that of the DMSO-treated control.

ATDC5 cells = experiment: Wnt/β-catenin signaling, proliferation and differentiation in ATDC5 chondrogenic cells; assay type: cell-based, mouse
Description: Cell culture and reagents. The mouse chondrogenic cell line, ATDC5, was obtained from the RIKEN Cell Batik. The human juvenile costal chondrocyte cell line, C28/I2, was provided by Dr. W. U. Kim (Catholic University, Korea). HEK293-TOP cells (HEK293 cells containing the chromosomally incorporated TOPFlash gene) were provided by Dr. S. Oh (Kuk Min University, Korea). ATDCS cells were maintained in DMEM/F12 (1:1) (Gibco, Grand Island, N.Y.) supplemented with 5% FBS (Gibco). To induce hypertrophic differentiation, ATDC5 cells were incubated with insulin-transferrin-sodium selenite (ITS) supplement (Gibco) in three-dimensional alginate beads for 3 days, as previously described. See e.g., Kawasaki Y. et al. (2008), Phosphorylation of GSK-3beta by cGMP-dependent protein kinase II promotes hypertrophic differentiation of murine chondrocytes. J CLIN INVEST 118: 2506-2515. C28/I2 and HEK293-TOP cells were maintained in DMEM (Gibco) containing 10% FBS. All chemicals were dissolved in dimethyl sulfoxide (DMSO; Sigma-Aldrich, St Louis, Mo.) for the in vitro studies. For E2 (17β-estradiol; Sigma-Aldrich) treatment, cells were cultured in phenol red-free DMEM/F12 with 5% charcoal-stripped FBS for 24 hours followed by serum-free medium for 24 hours before the experiment. The PTD-DBMP was synthesized by Peptide 2.0 Inc (Chantilly, Va.).
Immunocytochemistry. ATDCS or C28/I2 cells were seeded on glass coverslip in 12-well culture plates. The cells were washed with PBS and fixed with 4% PFA at room temperature for 15 minutes. After permeabilization with 0.1% triton-X-100 for 15 minutes and blocking with 5% BSA for 1 hour, the cells were incubated with primary antibodies specific for β-catenin (1:100) or CXXC5 l (1:200) at 4° C. overnight. The cells were washed in PBS and incubated with Alexa Fluor 488 or Alexa Fluor 555 secondary antibodies (1:200) at room temperature for 1 hour. Cell nuclei were counterstained with DAPI for 10 minutes and the stained samples were examined under a LSM700 META microscope using 405-, 488-, or 543-nm excitation wavelengths. For BrdU assay, cultured cells were incubated with BrdU solution (25 μM) overnight, followed by immunocytochemical staining with antibody against BrdU (1:100).
Immunoblot analyses. […] Protein samples were separated on a 8-12% sodium dodecylsulfate polyacrylamide gel electrophoresis (SDS-PAGE) and transferred to a nitrocellulose membrane (Whatman). Immunoblotting was performed with the following primary antibodies: anti-β-catenin (Santa Cruz Biotechnology, Santa Cruz, Calif., sc-7199; 1:3,000), anti-CXXC5 (lab made;1:200) anti-Myc tag (MBL, Aichi, Japan, M192-3; 1:1,000), anti-FLAG (Sigma-Aldrich, F7425; 1:1,000), anti-p-GSK3β (S9; Cell Signaling Technology, Danvers, Mass., 9336S; 1:1,000), anti-COL2A1 (Santa Cruz Biotechnology, sc-28887; 1:500), anti-RUNX2 (Abcam, ab23981; 1:500), anti-COLIOAI (Cosmo Bio, LSL-LB-0092; 1:500), anti-MMP13 (Santa Cruz Biotechnology, sc-30073; 1:500), anti-ERK (Santa Cruz Biotechnology, sc-94; 1:3,000) and anti-α-tubulin (Cell Signaling Technology, 3873S; 1:20,000). Samples were then incubated with horseradish-peroxidase-conjugated anti-mouse (Cell Signaling Technology, 7076; 1:3,000), anti-rabbit (Bio-Rad, 1706515; 1:3,000), or anti-goat (Santa Cruz Biotechnology; sc-2020; 1:3,000) secondary antibodies. Protein bands were visualized with enhanced chemiluminescence (ECL; Amersham Bioscience, Piscataway, N.J.) using a luminescent image analyzer, LAS-3000 (Fujifilm, Tokyo, Japan). Immunoblot bands were analyzed using Multi-Gauge V3.0 software (Fujifilm). Points of interest (POIs) from immunoblot bands were marked and quantified using densitometry, and the background signals were subtracted from respective immunoblot signals. Relative densitometry values were presented as the intensity ratios of each protein to loading control protein (α-tubulin or ERK).
Immunoprecipitation. Immunoprecipitation was performed as previously described (Kim et al, 2015). […]

[2] = test system: Tibial organ cultures (E15.5); experiment: Tibial organ culture (ex vivo); parameters: species or system mice; conditions: 100 nM for 6 days
Protocol: Tibial organ culture. Tibiae were isolated from embryonic day 15.5 (e15.5) mice and cultured for 6 days in phenol red-free a-MEM (Gibco) containing ascorbic acid, β-glycerophosphate, BSA, L-glutamine, and penicillin-streptomycin, as previously described (Gillespie et al, 2011). After dissection, tibiae were incubated in medium overnight and then treated with E2 (Sigma-Aldrich). Media and reagents were changed every 48 hours. Tibial images were captured using a SMZ-745T microscope (Nikon). Tibial length was measured prior to treatment and after 6 days in culture. The samples were then prepared for paraffin embedding, sectioned, and analyzed by H&E and IHC staining.

[3] = ATDC5 cells, 0.01 or 0.1 μM, 4 hours, FIG. 12

| Compound | IC50 (CXXC5-DVL interaction) [nM] | TOPFlash Wnt reporter activity [1] | number of BrdU-positive ATDC5 cells (ATDC5 cells; 0.01 or 0.1 μM, 48 hours, FIG. 11A) | CXXC5-DVL interaction, immunoprecipitation (ATDC5 cells; ATDC5 cells, 0.1 μM, 4 hours, FIG. 4F) | nuclear translocation of β-catenin (ATDC5 cells; ATDC5 cells, 0.1 μM, 48 hours, FIG. 4G) | mRNA levels of chondrogenic markers (ATDC5 cells; ATDC5 cells, 0.1 μM, 3 days, alginate beads, FIG. 11B) | expression levels of Wnt/β-catenin target genes (Fosl1, Wisp1, Axin2) (ATDC5 cells; [3]) | off-target effects: 19 other genes that respond to other pathways, mRNA (ATDC5 cells; [3]) | β-catenin level with inactivation of GSK3β, immunoblot (ATDC5 cells; ATDC5 cells, 24 hours, FIG. 4E) | tibial length [2] |
| --- | --- | --- | --- | --- | --- | --- | --- | --- | --- | --- |
| CO/N=C1/C(=C2/C(=O)Nc3cc(Cl)c(Cl)cc32)Nc2ccccc21 [KY19382, 5,6-dichloroindirubin-3′-methoxime] | 19 | strong enhancement | enhanced number | interruption of the CXXC5-DVL interaction | elevated | upregulated | markedly increased | not significantly altered | increment of β-catenin |  |
| 17β-estradiol [Compound E2] |  |  |  |  |  |  |  |  |  | reduced |

From US20210323918A1, “COMPOSITIONS AND METHODS FOR SUPPRESSING AND/OR TREATING A GROWTH RELATED DISEASE AND/OR A CLINICAL CONDITION THEREOF” (CK Biotech Inc., priority 2018, published 2021)
